Key:
[1] = test system: carboxylesterases (CEs); assay: CE activity in rat liver microsomes; format: biochemical; conditions: for CEs (10 μM), percent of control: 10 μM in rat liver microsomes; for CEs activity, percent of control: C inhib=10 μM in rat liver microsomes, Table 2
[2] = target: T1, MAGL (Rattus norvegicus, UniProt Q8R431); assay: MAGL activity in rat cerebellum cytosol; format: biochemical; conditions: for MAGL activity, percent of control / MAGL (100 μM), percent of control: C inhib=100 μM in rat cerebellum cytosol; for MAGL activity, percent of control: Table 2
T1 sequence (Q8R431 1-303): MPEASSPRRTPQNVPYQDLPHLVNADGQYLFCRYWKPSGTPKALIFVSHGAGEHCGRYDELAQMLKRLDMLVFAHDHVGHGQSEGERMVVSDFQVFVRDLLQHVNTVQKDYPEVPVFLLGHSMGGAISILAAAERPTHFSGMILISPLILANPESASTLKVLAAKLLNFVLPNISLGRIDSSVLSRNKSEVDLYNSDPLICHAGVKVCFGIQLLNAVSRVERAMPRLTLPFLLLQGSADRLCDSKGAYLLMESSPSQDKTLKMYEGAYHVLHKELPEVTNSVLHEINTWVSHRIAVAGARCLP

[3] = target: T2, FAAH (Rattus norvegicus, UniProt P97612); assay: In vitro FAAH activity in rat brain homogenates/membranes; format: biochemical; conditions: for FAAH activity, percent of control, 10 nM / FAAH activity, percent of control, 100 nM: rat brain homogenates, 15 min pre-incubation
T2 sequence (P97612 1-579): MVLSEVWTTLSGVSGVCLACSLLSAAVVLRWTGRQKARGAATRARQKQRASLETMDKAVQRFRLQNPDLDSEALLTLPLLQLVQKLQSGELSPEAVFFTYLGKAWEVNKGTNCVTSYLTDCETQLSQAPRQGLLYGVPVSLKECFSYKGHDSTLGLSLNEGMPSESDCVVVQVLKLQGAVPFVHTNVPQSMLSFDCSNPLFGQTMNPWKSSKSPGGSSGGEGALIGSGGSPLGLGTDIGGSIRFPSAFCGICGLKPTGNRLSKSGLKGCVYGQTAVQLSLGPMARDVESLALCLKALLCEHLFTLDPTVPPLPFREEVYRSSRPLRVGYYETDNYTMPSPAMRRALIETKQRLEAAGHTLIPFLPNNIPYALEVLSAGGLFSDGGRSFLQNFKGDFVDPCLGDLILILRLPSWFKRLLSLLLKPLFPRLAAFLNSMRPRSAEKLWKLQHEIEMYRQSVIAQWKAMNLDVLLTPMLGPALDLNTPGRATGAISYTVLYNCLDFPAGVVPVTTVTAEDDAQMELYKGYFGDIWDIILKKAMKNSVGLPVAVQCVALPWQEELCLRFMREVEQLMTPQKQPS

[4] = target: T3, FAAH (Mus musculus, UniProt O08914); assay: In vivo FAAH inhibition, liver, after oral administration to mice
T3 sequence (O08914 1-579): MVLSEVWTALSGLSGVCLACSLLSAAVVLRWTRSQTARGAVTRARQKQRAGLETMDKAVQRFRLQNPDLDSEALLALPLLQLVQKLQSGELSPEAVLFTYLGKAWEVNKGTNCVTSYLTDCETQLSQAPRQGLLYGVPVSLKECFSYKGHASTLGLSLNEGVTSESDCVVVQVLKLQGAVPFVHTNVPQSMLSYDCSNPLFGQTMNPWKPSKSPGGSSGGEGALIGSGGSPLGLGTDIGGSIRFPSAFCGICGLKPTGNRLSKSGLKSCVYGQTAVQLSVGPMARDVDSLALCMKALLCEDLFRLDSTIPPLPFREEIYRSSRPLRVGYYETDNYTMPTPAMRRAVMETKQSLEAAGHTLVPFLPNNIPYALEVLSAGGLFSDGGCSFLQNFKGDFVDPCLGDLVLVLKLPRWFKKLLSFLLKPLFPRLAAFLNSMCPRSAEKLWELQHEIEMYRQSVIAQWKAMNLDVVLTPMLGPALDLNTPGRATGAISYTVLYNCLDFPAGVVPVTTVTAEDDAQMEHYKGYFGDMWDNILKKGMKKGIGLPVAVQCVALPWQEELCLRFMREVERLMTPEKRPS

[5] = target: T3, FAAH; assay: In vivo FAAH inhibition, brain, after oral administration to mice
[6] = 0.1 mg kg^−1 p.o. in mice, 8 h after administration, Table 4
[7] = 0.1 mg kg^−1 p.o., mice, post-dose
[8] = 30 mg kg^−1 p.o. in mice, 1 h after administration, Table 2
[9] = 30 mg kg^−1 p.o. in mice, 1 h after administration (footnote f), Table 5
[10] = 0.1 mg kg^−1 p.o. in mice, 8 h after administration, Table 5

Row | Structure (SMILES) | CEs activity, percent of control [1] | MAGL activity, percent of control [2] | FAAH activity, percent of control, 10 nM ([3]; Table 2) | FAAH activity, percent of control, 100 nM ([3]; Table 2) | CEs (10 μM), percent of control ([1]; Table 5) | FAAH activity, percent of control, 100 nM ([3]; Table 5) | further results
1 | O=C(Nc1cccnc1)N1CCC(Cc2cccc(Oc3ccc(C(F)(F)F)cn3)c2)CC1 [Compound 3, PF3845, reference compound] | 95±17% of control | 87±12% of control | 101±31% of control | 7±4% of control |  |  | CEs (10 μM), percent of control ([1]; Table 4): 95±17% of control; MAGL (100 μM), percent of control ([2]; Table 4): 87±12% of control; Liver FAAH activity, percent of control [4, 6]: 7±4% of control; time of maximum inhibitory effect in the liver [4, 7]: 1 h; Liver FAAH activity, percent of control [4, 8]: 2±2% of control; inhibition at 30 mg/kg ([4]; mouse, po, read-out: FAAH inhibition in the liver): > 90%; Brain FAAH activity, percent of control [5, 6]: 5±1% of control; time of maximal inhibitory effect in the brain (t max) [5, 7]: 8 h; Brain FAAH activity, percent of control [5, 8]: 1±0% of control; FAAH inhibition in the brain ([5]; 30 mg kg^−1 p.o., mice, 1 h post-administration): over 90%
2 | CN(C(=O)n1ccnc1)c1ccccc1 [Compound 8 a, N ‐Methyl‐N‐phenyl‐1H‐imidazole‐1‐carboxamide] |  |  |  |  |  |  | inhibition at 10 µM ([3]; read-out: FAAH inhibition): 88%
3 | CN(C(=O)n1cnc(-c2ccccc2)c1)c1ccccc1 [Compound 8 b, N ‐Methyl‐N,4‐diphenyl‐1H‐imidazole‐1‐carboxamide] |  |  |  |  | 105±5% of control | 84±7% of control | Liver FAAH activity, percent of control [4, 9]: 11±5^[f] Percent of control; Brain FAAH activity, percent of control [5, 9]: 14±17^[f] Percent of control
4 | CC1(C)COCN1C(=O)n1cnc(-c2ccccc2)c1 [Compound 8 f, (4,4‐Dimethyloxazolidin‐3‐yl)(4‐phenyl‐1H‐imidazol‐1‐yl)methanone] |  |  |  |  | 95±6% of control | 94±10% of control | MAGL (100 μM), percent of control ([2]; Table 5): 92±3% of control; Liver FAAH activity, percent of control [4, 10]: 53±6% of control; Brain FAAH activity, percent of control [5, 10]: 92±7% of control
5 | O=C(N1CCN(Cc2ccccc2)CC1)n1cnc(-c2ccccc2)c1 [Compound 8 g] |  |  |  |  | 52±2% of control | 1±0% of control | MAGL (100 μM), percent of control ([2]; Table 5): 61±6% of control
6 | CN(C(=O)n1cnc(-c2ccccc2)c1)C1CCOCC1 [Compound 8 i] |  |  |  |  | 96±7% of control | 104±18% of control | MAGL (100 μM), percent of control ([2]; Table 5): 96±1% of control; Liver FAAH activity, percent of control [4, 10]: 12±4% of control; Brain FAAH activity, percent of control [5, 10]: 38±18% of control
7 | CN(C(=O)n1cnc(-c2ccccc2)c1)C1CCCCC1 [Compound 8 j] |  |  |  |  | 90±11% of control | 37±3% of control | MAGL (100 μM), percent of control ([2]; Table 5): 91±3% of control; Liver FAAH activity, percent of control [4, 10]: 33±2% of control; Brain FAAH activity, percent of control [5, 10]: 86±5% of control
8 | CN(C(=O)n1cnc(-c2cccnc2)c1)C1CCCCC1 [Compound 8 k, N ‐Cyclohexyl‐N‐methyl‐4‐(pyridin‐3‐yl)‐1H‐imidazole‐1‐carboxamide] |  |  |  |  | 97±3% of control | 75±7% of control | MAGL (100 μM), percent of control ([2]; Table 5): 94±4% of control; Liver FAAH activity, percent of control [4, 10]: 13±4% of control; Brain FAAH activity, percent of control [5, 10]: 75±16% of control
9 | CN(C(=O)n1nnc2ccccc21)c1ccccc1 [Compound 10 a] | 31±2% of control | 73±4% of control | 42±12% of control | 1±0% of control |  |  | IC50 ([1]; read-out: CE IC50, rat liver microsomes): > 1000 nM; IC50 [2]: > 100000 nM; IC50 [3]: 7 nM; Liver FAAH activity, percent of control [4, 8]: 34±5% of control; Brain FAAH activity, percent of control [5, 8]: 34±9% of control
10 | CN(C(=O)n1nnc2ccccc21)c1ccc(F)cc1F [Compound 10 b, N ‐(2,4‐Difluorophenyl)‐N‐methyl‐1H‐benzo[d][1,2,3]triazole‐1‐carboxamide] | 40±1% of control | 70±6% of control | 35±3% of control | 2±1% of control |  |  | 
11 | COc1cc(OC)cc(N(C)C(=O)n2nnc3ccccc32)c1 [Compound 10 c] |  |  |  | 76±0% of control |  |  | 
12 | O=C(Nc1ccc(F)cc1F)n1nnc2ccccc21 [Compound 10 d, N ‐(2,4‐Difluorophenyl)‐1H‐benzo[d][1,2,3]triazole‐1‐carboxamide] |  |  |  | 100±5% of control |  |  | 
13 | O=C(NCc1ccccc1)n1nnc2ccccc21 [Compound 10 e] | 67±4% of control | 4±1% of control | 13±1% of control | 2±1% of control |  |  | Liver FAAH activity, percent of control [4, 8]: 84±6% of control; Brain FAAH activity, percent of control [5, 8]: 87±7% of control
14 | CN(Cc1ccccc1)C(=O)n1nnc2ccccc21 [Compound 10 f] | 24±1% of control | 2±2% of control | 0±0% of control | 0±0% of control |  |  | Liver FAAH activity, percent of control [4, 8]: 6±2% of control; Brain FAAH activity, percent of control [5, 8]: 1±0% of control
15 | O=C(N1CCC(Cc2ccccc2)CC1)n1nnc2ccccc21 [Compound 10 h] | 24±2% of control | 7±5% of control | 0±0% of control | 0±0% of control |  |  | Liver FAAH activity, percent of control [4, 8]: 6±1% of control; Brain FAAH activity, percent of control [5, 8]: 8±1% of control
16 | O=C(N1CCCCCCC1)n1nnc2ccccc21 [Compound 10 m] | 30±2% of control | 58±6% of control | 62±6% of control | 15±1% of control |  |  | 
17 | C[C@@H]1CCC[C@H](C)N1C(=O)n1nnc2ccccc21 [Compound 10 n] | 28±1% of control | 35±5% of control |  | 71±7% of control |  |  | 
18 | CC1(C)OCCN1C(=O)n1nnc2ccccc21 [Compound 10 o] | 60±7% of control | 84±25% of control | 71±2% of control | 17±3% of control |  |  | 
19 | CC1(C)COCN1C(=O)n1nnc2cccnc21 [Compound 11 e] |  |  |  |  |  |  | CEs (10 μM), percent of control ([1]; Table 4): 61±11% of control; MAGL (100 μM), percent of control ([2]; Table 4): 72±5% of control; Liver FAAH activity, percent of control [4, 6]: 14±7% of control; inhibition at 0.1 mg/kg ([4]; mouse, po, read-out: peripheral (liver) FAAH inhibition): > 85%; cerebral (brain) FAAH inhibition ([5]; 0.1 mg kg^−1, mouse, p.o., 8 h post-dose): over 85%; Brain FAAH activity, percent of control [5, 6]: 12±4% of control

From publication PMC6582431 (Chemmedchem, 2018)
